System: Staphylococcus aureus (ATCC 6538)
Experiment: Potentiation Assay (non-evaporative vs evaporative procedure)
Assay type: cell-based
Conditions: for Evaporated Log 10 Reduction: evaporated in centrifuge 60 minutes; for Non-evaporated Log 10 Reduction: set 60 minutes
Description: Now referring primarily to Table 5 and FIG. […] The non-evaporative and evaporative procedures included 50 μL of an overnight Staphylococcus aureus (ATCC 6538, ˜10^9 CFU/mL) culture added to each 2 mL sterile plastic vial with a conical bottom and dried without capping in a centrifuge for 30 minutes. One hundred microliters of the solution being tested was added to each vial (as triplicate vials) either let set for 60 minutes (non-evaporative) or evaporated in a centrifuge for 60 minutes (evaporative), with time to evaporate being determined by each DAA mixtures own evaporative characteristic. To the non-evaporated vials, 400 μL Mueller Hinton Broth (MHB) was added to the vial and 100 μL was plated onto Nutrient agar (NA). To the evaporated vials, 500 μL of MHB was added and 100 μL was plated onto NA. Plates were incubated overnight at ˜37° C. and counted (the “Potentiation Assay”).

[1] = 5% v/v active component, 95% water
[2] = 10% v/v active component, 90% water
[3] = 15% v/v active component, 85% water

Compound	Evaporated Log 10 Reduction [1]	Non-evaporated Log 10 Reduction [1]	Evaporated Log 10 Reduction [2]	Non-evaporated Log 10 Reduction [2]	Evaporated Log 10 Reduction [3]	Non-evaporated Log 10 Reduction [3]	evaporative potentiation of antimicrobial efficacy (evaporative vs non-evaporative procedure, concentrations tested in water)
CN(C)CCO [DMEA, 2-dimethylaminoethanol]	XX (denotes a plate where the number of colonies represented less than 10% of the number of colonies counted in the corresponding positive control plate, representing a significant reduction of the number of microorganisms (>3 Log10 reduction).)	---0--- (denotes a plate where the numbers of colonies represented more than 50% of the number of colonies counted in the corresponding positive control plate, representing no significant reduction in the population of viable microorganisms (0 to 1 Log10 reduction).)	XXx (denotes a plate where the number of colonies represented less than 1% of the number of colonies counted in the corresponding positive control plate, representing nearly complete reduction of the number of microorganisms (>4 Log10 reduction).)	---0--- (denotes a plate where the numbers of colonies represented more than 50% of the number of colonies counted in the corresponding positive control plate, representing no significant reduction in the population of viable microorganisms (0 to 1 Log10 reduction).)	XXx (denotes a plate where the number of colonies represented less than 1% of the number of colonies counted in the corresponding positive control plate, representing nearly complete reduction of the number of microorganisms (>4 Log10 reduction).)	---0--- (denotes a plate where the numbers of colonies represented more than 50% of the number of colonies counted in the corresponding positive control plate, representing no significant reduction in the population of viable microorganisms (0 to 1 Log10 reduction).)	
CC(=O)OCCOC(C)=O [EGDA, ethylene glycol diethyl ester]	---0--- (denotes a plate where the numbers of colonies represented more than 50% of the number of colonies counted in the corresponding positive control plate, representing no significant reduction in the population of viable microorganisms (0 to 1 Log10 reduction).)	---0--- (denotes a plate where the numbers of colonies represented more than 50% of the number of colonies counted in the corresponding positive control plate, representing no significant reduction in the population of viable microorganisms (0 to 1 Log10 reduction).)	XX (denotes a plate where the number of colonies represented less than 10% of the number of colonies counted in the corresponding positive control plate, representing a significant reduction of the number of microorganisms (>3 Log10 reduction).)	---0--- (denotes a plate where the numbers of colonies represented more than 50% of the number of colonies counted in the corresponding positive control plate, representing no significant reduction in the population of viable microorganisms (0 to 1 Log10 reduction).)	XX (denotes a plate where the number of colonies represented less than 10% of the number of colonies counted in the corresponding positive control plate, representing a significant reduction of the number of microorganisms (>3 Log10 reduction).)	---0--- (denotes a plate where the numbers of colonies represented more than 50% of the number of colonies counted in the corresponding positive control plate, representing no significant reduction in the population of viable microorganisms (0 to 1 Log10 reduction).)	can be potentiated by evaporation

— US9474814B2, “Differential evaporation potentiated disinfectant system” (XY, LLC, priority 2007, dated 2016)
